Holding throughout (format): cell-based
The subject of assay [1] is SW480 (colon cancer). Put plainly: Antiproliferative activity (CCK-8 cell viability), SW480. The note with it: Homo sapiens, 72 h; for inhibition at 3.3 µM: Compound concentration: 3.3 μM; for inhibition at 3.3 µM / inhibition at 10 µM: read-out: Antiproliferative activity in cancerous cells, SW480 (inhibition of cell growth); for inhibition at 10 µM: Compound concentration: 10 μM. Summed up: (§1)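 Growth inhibition graded in bands from percent viability against DMSO vehicle, read as CCK-8 absorbance at 450 nm. Compound tested at 3.3, 10 or 30 μM for 72 h, 37 °C; media contained 10% FBS: DMEM for HepG2/SW480, MEM for HeLa, F-12K for A549.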

In assay [2] the test system is MDA-MB-231 (breast cancer). Put plainly: Antiproliferative activity (CCK-8 cell viability), MDA-MB-231. As to conditions: Homo sapiens, 72 h; for inhibition at 3.3 µM: Compound concentration: 3.3 μM; for inhibition at 3.3 µM / inhibition at 10 µM: read-out: Antiproliferative activity in cancerous cells, MDA-MB-231 (inhibition of cell growth); for inhibition at 10 µM: Compound concentration: 10 μM; for inhibition at 30 µM: Compound concentration: 30 μM, read-out: Antiproliferative activity in cancerous cells, MDA-MB-231. Summed up: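 Growth inhibition of human MDA-MB-231 breast cancer cells was assessed with a Cell Counting Kit-8. Cells cultured in DMEM plus 10% FBS were seeded at 2,000-5,000 cells/well, treated after attachment, and kept 72 h at 37° C. CCK-8 solution (10 μL) was added for 4 h, and absorbance at 450 nm was compared with DMSO-treated controls.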

Assay [3] deals with B16F10 (malignant melanoma). The assay is described as follows: Antiproliferative activity (CCK-8 cell viability), B16F10. As to conditions: Mus musculus, 72 h; for inhibition at 3.3 µM: B16-F10, Compound concentration: 3.3 μM; for inhibition at 3.3 µM / inhibition at 10 µM: read-out: Antiproliferative activity in cancerous cells, B16F10 (inhibition of cell growth); for inhibition at 10 µM: B16-F10, Compound concentration: 10 μM. In outline: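 Cell growth inhibition was measured in B16F10 malignant melanoma cells with a Cell Counting Kit-8 viability assay. Cells were maintained in DMEM plus 10% fetal bovine serum, seeded at 2,000-5,000 cells/well in 96-well plates, and treated for 72 h at 37° C. Viability was expressed relative to DMSO-treated vehicle control wells.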

For assay [4], the system named is A549 (lung adenocarcinoma). The assay is described as follows: Antiproliferative activity (CCK-8 cell viability), A549. The note with it: Homo sapiens, 72 h; for inhibition at 3.3 µM: Compound concentration: 3.3 μM; for inhibition at 3.3 µM / inhibition at 10 µM: read-out: Antiproliferative activity in cancerous cells, A549 (inhibition of cell growth); for inhibition at 10 µM: Compound concentration: 10 μM. In outline: as §1

The subject of assay [5] is HepG2 (liver cancer). Put plainly: Antiproliferative activity (CCK-8 cell viability), HepG2. The note with it: Homo sapiens, 72 h; for inhibition at 3.3 µM: Compound concentration: 3.3 μM; for inhibition at 3.3 µM / inhibition at 10 µM: read-out: Antiproliferative activity in cancerous cells, HepG2 (inhibition of cell growth); for inhibition at 10 µM: Compound concentration: 10 μM. Summed up: as §1

In assay [6] the test system is HeLa (cervical cancer). Put plainly: Antiproliferative activity (CCK-8 cell viability), HeLa. As to conditions: Homo sapiens, 72 h, read-out: Antiproliferative activity in cancerous cells, HELA (inhibition of cell growth); for inhibition at 3.3 µM: Compound concentration: 3.3 μM; for inhibition at 10 µM: Compound concentration: 10 μM. In outline: as §1
Assay [7] relates to A431 (epidermoid carcinoma). Put plainly: Antiproliferative activity (CCK-8 cell viability), A431. As to conditions: Homo sapiens, 72 h, read-out: Antiproliferative activity in cancerous cells, A431 (inhibition of cell growth); for inhibition at 3.3 µM: A-431, Compound concentration: 3.3 μM; for inhibition at 10 µM: A-431, Compound concentration: 10 μM. In outline:
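This growth inhibition assay used A431 cells maintained in Dulbecco's modified Eagle's medium plus 10% fetal bovine serum. Cells were seeded in 96-well plates, treated with compound for 72 h at 37° C., and then given 10 μL CCK-8 solution. After a further 4 h, absorbance was read at 450 nm.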

A value given as a limit tells only on which side of the number the result lay.

For `CC1=C(CC(=O)O)c2cc(F)ccc2/C1=C\c1ccc(Oc2ccc(F)c(Br)c2)cc1` [C53, (Z)-2-(1-(4-(3-Bromo-4-fluorophenoxy)benzylidene)-5-fluoro-2-methyl-1H-inden-3-yl)acetic acid], the inhibition at 3.3 µM in assay [1] was under 30%; in assay [2], at least 50%; in assay [3], under 30%; in assay [4], under 30%; in assay [5] it was under 30%; in assay [6], under 30%. The inhibition at 3.3 µM in assay [7] is at least 50%. In addition, the inhibition at 10 µM was at least 50% in assay [1]; at least 50% in assay [2]; at least 50% in assay [3]; 30 to 50% in assay [4]; at least 50% in assay [5]; at least 50% in assay [6]. Also, the inhibition at 10 µM in assay [7] was at least 50%.
As for `CC1=C(CC(=O)O)c2cc(F)ccc2/C1=C\c1ccc(S(=O)(=O)c2ccc(F)cc2)cc1` [C40, (Z)-2-(5-Fluoro-1-(4-((4-fluorophenyl)sulfonyl)benzylidene)-2-methyl-1H-inden-3-yl)acetic acid], the inhibition at 3.3 µM in assay [1] was under 30%; in assay [2], 30 to 50%; in assay [3] it was under 30%; in assay [4], under 30%; in assay [5], under 30%; in assay [6], under 30%. The inhibition at 3.3 µM in assay [7] fell in the range of 30 to 50%. Besides, the inhibition at 10 µM in assay [1] is at least 50%; in assay [2], 30 to 50%; in assay [3], at least 50%; in assay [4], 30 to 50%; in assay [5] it was at least 50%; in assay [6] it was at least 50%. Also, the inhibition at 10 µM in assay [7] is 30 to 50%. For the same compound, in assay [2], the inhibition at 30 µM is 30 to 50%.
In the case of `CC1=C(CC(=O)O)c2cc(Cl)ccc2/C1=C\c1ccc(Oc2ccc(Cl)cc2)cc1` [C62, (Z)-2-(5-Chloro-1-(4-(4-chlorophenoxy)benzylidene)-2-methyl-1H-inden-3-yl)acetic acid], the inhibition at 3.3 µM is under 30% in assay [1]; under 30% in assay [2]; under 30% in assay [3]; 30 to 50% in assay [4]; at least 50% in assay [5]; 30 to 50% in assay [6]. For the same compound, in assay [7], the inhibition at 3.3 µM was in the range of 30 to 50%. In addition, the inhibition at 10 µM is 30 to 50% in assay [1]; under 30% in assay [2]; at least 50% in assay [3]; at least 50% in assay [4]; at least 50% in assay [5]; at least 50% in assay [6]. In addition, the inhibition at 10 µM in assay [7] is at least 50%.
`CCc1ccc2c(c1)C(CC(=O)O)=C(C)/C2=C/c1ccc(COc2ccc(F)cc2)cc1` [B52, (Z)-2-(5-Ethyl-1-(4-((4-fluorophenoxy)methyl)benzylidene)-2-methyl-1H-inden-3-yl)acetic acid]: the inhibition at 3.3 µM in assay [1] was 30 to 50%; in assay [2], at least 50%; in assay [3], at least 50%; in assay [4], 30 to 50%; in assay [5], under 30%; in assay [6], 30 to 50%. Moreover, the inhibition at 3.3 µM in assay [7] was in the range of 30 to 50%. Moreover, the inhibition at 10 µM in assay [1], in assay [2], in assay [3], in assay [4], in assay [5] and in assay [6] was at least 50% in each case. The inhibition at 10 µM in assay [7] is at least 50%.
Consider `CCc1ccc2c(c1)/C(=C\c1ccc(COc3ccccc3)cc1)C(C)=C2CC(=O)O` [B48, (Z)-2-(6-Ethyl-2-methyl-1-(4-(phenoxymethyl)benzylidene)-1H-inden-3-yl)acetic acid], for which the inhibition at 3.3 µM in assay [1] is under 30%; in assay [2], under 30%; in assay [3] it was 30 to 50%; in assay [4], under 30%; in assay [5] it was under 30%; in assay [6], 30 to 50%. Also, the inhibition at 3.3 µM in assay [7] was at least 50%. Further, the inhibition at 10 µM was under 30% in assay [1]; under 30% in assay [2]; 30 to 50% in assay [3]; 30 to 50% in assay [4]; under 30% in assay [5]; at least 50% in assay [6]. Moreover, the inhibition at 10 µM in assay [7] was at least 50%. The inhibition at 30 µM in assay [1] (Compound concentration: 30 μM, read-out: Antiproliferative activity in cancerous cells, SW480) was under 30%; in assay [2], under 30%; in assay [3] (B16-F10, Compound concentration: 30 μM, read-out: Antiproliferative activity in cancerous cells, B16F10), 30 to 50%; in assay [4] (Compound concentration: 30 μM, read-out: Antiproliferative activity in cancerous cells, A549), 30 to 50%; in assay [5] (Compound concentration: 30 μM, read-out: Antiproliferative activity in cancerous cells, HepG2), under 30%.
Turning to `CC1=C(CC(=O)O)c2cc(F)ccc2/C1=C\c1ccc(CCCc2ccc(O)cc2)cc1` [B129, (Z)-2-(5-Fluoro-1-(4-(3-(4-hydroxyphenyl)propyl)benzylidene)-2-methyl-1H-inden-3-yl)acetic acid], the inhibition at 3.3 µM in assay [1] was under 30%; in assay [2], at least 50%; in assay [3], at least 50%; in assay [4], 30 to 50%; in assay [5] it was under 30%; in assay [6] it was under 30%. Further, the inhibition at 3.3 µM in assay [7] is under 30%. The inhibition at 10 µM is under 30% in assay [1]; at least 50% in assay [2]; at least 50% in assay [3]; at least 50% in assay [4]; at least 50% in assay [5]; at least 50% in assay [6]. Further, the inhibition at 10 µM in assay [7] was at least 50%.

For the origin of these results see patent US20260184663A1, “INDENE COMPOUNDS, PHARMACEUTICAL COMPOSITIONS THEREOF, AND THEIR THERAPEUTIC APPLICATIONS” (NucMito Pharmaceuticals co. Ltd., priority 2022, published 2026).
